According to the supplement of paper PMC10307832:

Experiments:
Experiment in all cases: relative viability (nuclei count vs DMSO), 5 days (fraction); higher = more cells survive
RO-3306 + Dasatinib = compound: C1=CC2=C(C=CC(=C2)C=C3C(=O)NC(=NCC4=CC=CS4)S3)N=C1 [RO-3306] + Cc1nc(Nc2ncc(C(=O)Nc3c(C)cccc3Cl)s2)cc(N2CCN(CCO)CC2)n1 [Dasatinib] (partner 0.075 µM)
How it was run: (§1)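 Relative viability equals treated-well nuclei counts divided by vehicle-well nuclei counts. Counts came from 4× images of lung cancer cell lines grown in 1536-well plates for 5 days after pin-tool dosing on the day after seeding. Dosing used one drug alone or a fixed anchor-drug dose plus five library-drug doses (not always all listed) in √10 steps, and values are medians of duplicate plates.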

[1] = compound: O=S(=O)(c1ccccc1)N(CC(F)(F)F)c1ccc(C(O)(C(F)(F)F)C(F)(F)F)cc1 + Cc1nc(NC(=O)N2CCC[C@H]2C(N)=O)sc1-c1ccnc(C(C)(C)C(F)(F)F)c1 [Alpelisib] (partner 2 µM)
How it was run: as §1

[2] = compound: O=S(=O)(c1ccccc1)N(CC(F)(F)F)c1ccc(C(O)(C(F)(F)F)C(F)(F)F)cc1 + COc1cccc2cc(-c3nc([C@H]4CC[C@H](C(=O)O)CC4)n4ncnc(N)c34)[nH]c12 [OSI-027] (partner 0.5 µM)
How it was run: as §1

RO-3306 + Bortezomib = compound: C1=CC2=C(C=CC(=C2)C=C3C(=O)NC(=NCC4=CC=CS4)S3)N=C1 [RO-3306] + CC(C)C[C@H](NC(=O)[C@H](Cc1ccccc1)NC(=O)c1cnccn1)B(O)O [Bortezomib] (partner 0.002 µM)
How it was run: as §1

[3] = compound: O=S(=O)(c1ccccc1)N(CC(F)(F)F)c1ccc(C(O)(C(F)(F)F)C(F)(F)F)cc1 + Nc1ncn([C@H]2C[C@H](O)[C@@H](CO)O2)c(=O)n1 [Decitabine] (partner 2 µM)
How it was run: as §1

| Cell Line | relative viability (RO-3306 + Dasatinib; first compound 0.01 µM) | relative viability (RO-3306 + Dasatinib; first compound 0.03162 µM) | relative viability (RO-3306 + Dasatinib; first compound 0.1 µM) | relative viability (RO-3306 + Dasatinib; first compound 0.3162 µM) | relative viability (RO-3306 + Dasatinib; first compound 1 µM) | relative viability ([1]; first compound 0.8 µM) | relative viability ([1]; first compound 2.53 µM) | relative viability ([1]; first compound 8 µM) | relative viability ([2]; first compound 0.8 µM) | relative viability ([2]; first compound 2.53 µM) | relative viability ([2]; first compound 8 µM) | relative viability (RO-3306 + Bortezomib; first compound 0.01 µM) | relative viability (RO-3306 + Bortezomib; first compound 0.03162 µM) | relative viability (RO-3306 + Bortezomib; first compound 0.1 µM) | relative viability (RO-3306 + Bortezomib; first compound 0.3162 µM) | relative viability (RO-3306 + Bortezomib; first compound 1 µM) | relative viability ([3]; first compound 0.8 µM) | relative viability ([3]; first compound 2.53 µM) | relative viability ([3]; first compound 8 µM) |
| --- | --- | --- | --- | --- | --- | --- | --- | --- | --- | --- | --- | --- | --- | --- | --- | --- | --- | --- | --- |
| LCLC-103H | 0.472 | 0.478 | 0.44 | 0.401 | 0.385 | 1.11 | 0.999 | 1.03 | 0.507 | 0.505 | 0.439 | 1.06 | 1.03 | 1.01 | 0.927 | 0.815 | 0.739 | 0.743 | 0.734 |
| LOU-NH91 | 0.617 | 0.496 | 0.513 | 0.57 | 0.5 | 0.654 | 0.721 | 0.74 | 0.722 | 0.718 | 0.79 | 0.557 | 0.491 | 0.441 | 0.483 | 0.442 | 0.846 | 0.823 | 0.894 |
| LU99A | 0.606 | 0.581 | 0.553 | 0.507 | 0.553 | 0.606 | 0.498 | 0.472 | 0.302 | 0.296 | 0.302 | 1.38 | 1.09 | 1.04 | 0.98 | 1.07 | 0.876 | 0.863 | 0.834 |
| LXF-289 | 0.19 | 0.259 | 0.199 | 0.198 | 0.2 | 1.03 | 0.912 | 0.789 | 0.877 | 0.64 | 0.749 | 0.992 | 0.928 | 1.05 | 0.95 | 0.929 | 0.411 | 0.419 | 0.429 |
| NCI-H23 | 0.679 | 0.595 | 0.932 | 0.75 | 0.657 | 0.905 | 0.818 | 0.618 | 0.62 | 0.711 | 0.594 | 1.04 | 0.755 | 1.1 | 0.944 | 0.773 | 0.292 | 0.28 | 0.352 |
| NCI-H322M | 0.252 | 0.259 | 0.257 | 0.255 | 0.244 | 0.794 | 0.792 | 0.73 | 0.61 | 0.501 | 0.506 | 1.17 | 1.12 | 1.19 | 1.32 | 1.22 | 0.685 | 0.721 | 0.663 |
| NCI-H441 | 0.499 | 0.392 | 0.657 | 0.485 | 0.709 | 0.815 | 0.481 | 0.64 | 0.669 | 0.517 | 0.62 | 0.771 | 0.4 | 0.647 | 0.449 | 0.31 | 0.238 | 0.212 | 0.21 |
| NCI-H460 | 0.543 | 0.435 | 0.448 | 0.518 | 0.385 | 0.544 | 0.512 | 0.512 | 0.882 | 0.699 | 0.723 | 1.37 | – | 1.1 | 1.34 | 0.776 | 0.681 | 0.462 | 0.349 |
